Measurements from paper PMC8875489, “Pharmaceutical and Safety Profile Evaluation of Novel Selenocompounds with Noteworthy Anticancer Activity” (Pharmaceutics, 2022).
≈ marks a conversion by molar mass, not a printed value. Where two headings read alike, the source gives them in different places.

Columns and labels:
[1] = Water solubility of methylseleno-aspirin (literature); type: physicochemical; conditions: recalculated taking molecular weight into account
From the text: The low solubility was not a surprise: according to the literature, the majority of the synthetic organic selenocompounds are poorly soluble in water. […] (or 0.0568 g/L when taking its molecular weight into account). […] To improve the solubility of water-insoluble anticancer drug candidates, the use of solubilizers, such as surfactants, organic solvents, cyclodextrins, lipids, and pH modifiers, is a common approach. Even though lowly water-soluble drugs can become moderately soluble if a suitable amount of additives is used, the usage of the additives need to be kept below their toxicity rate. Moreover, the usage of solubilizers can cause drug instability and is limited due to undesirable effects.

[2] = design: method as in PMID 33260948; conditions: cited from earlier work

C[Se]C(=O)c1ccccc1OC(C)=O [methylseleno-aspirin]
water solubility [1]: 56.8 µg/mL (≈ 221 µM)
water solubility [2]: 220 µM (≈ 56.6 µg/mL)
